Biological target: T1, Kv7.2/7.3 (Homo sapiens, UniProt O43525+O43526)
T1 construct: Kv7.3 is constitutive and Kv7.2 is tetracycline-induced
Experiment: Kv7.2/7.3 Thallium Flux Assay (FluxOR II Green)
Assay type: cell-based
Settings: single concentration of 10 μM; fluorescence at 90 sec normalized to positive control (retigabine, 30 μM); hKv7.2/7.3 cell line
Source text: The Thallium Flux Assay is used as a surrogate indicator of potassium channel activity.
The experimental protocol was adapted from the FluxOR™ II Green Potassium Ion Channel Assay User Guide (Pub. No. MAN0016084, Invitrogen). Conditions were optimized for the Kv7.2/7.3 cell line.
Cell Line: The hKV7.2/7.3 cell line was obtained from Chantest (cat. #CT6147).
Cell Culture: Kv7.2/7.3 cells were maintained in a media containing DMEM/F12; 50/50 (Fisher 11-330), 10% Fetal Bovine Serum (FBS) (Fisher 26-140), 100 units/mL Penicillin-Streptomycin (Fisher 15-140), 0.005 mg/ml Blasticidin (InvivoGen ant-bl-1), 0.5 mg/mL Geneticin (InvivoGen ant-gn-5), and 0.1 mg/mL Zeocin (Fisher R25001). One day prior to experimentation, cells were plated in 96 well clear bottom plates (Corning cat. #353219) in a media without Blasticidin, Geneticin, or Zeocin. In this cell line Kv7.3 channel expression is controlled by a constitutive promoter. Kv7.2 channel expression was induced by adding tetracycline (Sigma T7660) at a final concentration of 10 ng/mL overnight in a cell culture incubator at 37° C. and 5% CO2. On the day of assay, the cell culture medium in the 96-well plates was replaced by assay buffer containing the thallium-sensitive fluorescent sensor, FluxOR II Green prepared according to manufacturer's instructions. The 96-well plates were then incubated for 1 h at 37° C. Following the incubation, the FluxOR II Green-containing solution was replaced with extracellular solution.
Test Compound Plates: The test compound is diluted in a mixture of 0.1% DMSO/extracellular solution at a single concentration of 10 μM. Dilutions were made on a Biomek NXP (BECKMAN COULTER). Extracellular solution contained (in mM: 145 NaCl, 4 KCl, 2 CaCl2), 1 MgCl2, 10 HEPES, and 10 Glucose, pH 7.4)
Measurement and data analysis: Thallium-flux-mediated changes in intracellular fluorescence were made using a plate reader (Enspire, Perkin Elmer) set with an excitation wavelength of 475 nm and an emission wavelength of 530 nm. After a 15 sec baseline measurement, the stimulus buffer containing thallium and potassium was added to the 96-well plate containing FluxOR II Green-loaded cells and test compounds. Fluorescence values at 90 sec were normalized to the positive control (retigabine, 30 μM) and test compound activities were assigned categories according to the formula: “No Activity <0.15, “+” Moderate Activity 0.15-0.7, and “++” High Activity >0.7.

Row | Structure (SMILES) | Kv7.2/7.3 Activity
1 | O=C(CC1CC(F)(F)C1)Nc1n[nH]c(-c2ccc(F)cc2)c1C1CCC1 [Compound 1, N-(4-cyclobutyl-5-(4-fluorophenyl)-1H-pyrazol-3-yl)-2-(3,3-difluorocyclobutyl)acetamide] | ++ (“++” High Activity ≥0.7)
2 | O=C(Nc1n[nH]c(-c2ccc(Cl)s2)c1C1CCC1)C1CC(F)(F)C1 [Compound 2, N-(5-(5-chlorothiophen-2-yl)-4-cyclobutyl-1H-pyrazol-3-yl)-3,3-difluorocyclobutane-1-carboxamide] | ++ (“++” High Activity ≥0.7)
3 | O=C(Nc1n[nH]c(-c2ccc(Cl)s2)c1C1CCC1)C1CSC1 [Compound 3, N-(5-(5-chlorothiophen-2-yl)-4-cyclobutyl-1H-pyrazol-3-yl)thietane-3-carboxamide] | − (“−” No Activity <0.15)
4 | O=C(Nc1n[nH]c(-c2ccc(Cl)s2)c1C1CCC1)C1CC(C(F)(F)F)C1 (stereo not shown) [Compound 4, N-(5-(5-chlorothiophen-2-yl)-4-cyclobutyl-1H-pyrazol-3-yl)-3-(trifluoromethyl)cyclobutane-1-carboxamide] | ++ (“++” High Activity ≥0.7)
5 | O=C(Nc1n[nH]c(-c2ccc(F)cc2)c1C1CCC1)C1CC(F)(F)C1 [Compound 6, N-(4-cyclobutyl-5-(4-fluorophenyl)-1H-pyrazol-3-yl)-3,3-difluorocyclobutane-1-carboxamide] | ++ (“++” High Activity ≥0.7)

More lines, now with the values ahead:

Row | Kv7.2/7.3 Activity | Structure (SMILES)
6 | + (“+” Moderate Activity 0.15-0.7) | C[C@@H](C(=O)Nc1n[nH]c(-c2ccc(Cl)s2)c1C1CCC1)C1(C(F)(F)F)CC1 (stereo in doubt) [Compound 5, N-(5-(5-chlorothiophen-2-yl)-4-cyclobutyl-1H-pyrazol-3-yl)-2-(1-(trifluoromethyl)cyclopropyl)propanamide]
7 | ++ (“++” High Activity ≥0.7) | O=C(Nc1[nH]nc(C2CC(F)(F)C2)c1C1CCC1)OC1CC(F)(F)C1 [Compound 7, 3,3-difluorocyclobutyl (4-cyclobutyl-3-(3,3-difluorocyclobutyl)-1H-pyrazol-5-yl)carbamate]
